Reference: the NIST ThermoML archive (doi:10.1016/j.jct.2014.06.023)
“And” between values parts separate entries of the source, which are not always exact repeats. Equal values may be shown once.

Details: Buoyancy - hydrostatic balance with magnetic suspension - one sinker

FCF [difluoromethane]
Details | mass density
215.35 K, 1103.8 kPa, Liquid | 1230.26 kg/m3
215.35 K, 1325.8 kPa, Liquid | 1230.63 kg/m3
215.36 K, 1538.7 kPa, Liquid | 1230.95 kg/m3
215.36 K, 1697.9 kPa, Liquid | 1231.2 kg/m3
215.37 K, 103.26 kPa, Liquid | 1228.62 kg/m3
215.37 K, 297.95 kPa, Liquid | 1228.9 kg/m3
215.37 K, 703.99 kPa, Liquid | 1229.57 kg/m3
215.39 K, 1295 kPa, Liquid | 1230.49 kg/m3
224.87 K, 174.37 kPa, Liquid | 1202.55 kg/m3
224.87 K, 584.91 kPa, Liquid | 1203.31 kg/m3
224.88 K, 1061.9 kPa, Liquid | 1204.12 kg/m3
224.89 K, 1060.1 kPa, Liquid | 1204.1 kg/m3
224.91 K, 1506.3 kPa, Liquid | 1204.87 kg/m3
234.46 K, 1590 kPa, Liquid | 1178.28 kg/m3
234.51 K, 797.4 kPa, Liquid | 1176.49 kg/m3
234.52 K, 405.74 kPa, Liquid | 1175.67 kg/m3
234.55 K, 274.67 kPa, Liquid | 1175.3 kg/m3
234.56 K, 1164.8 kPa, Liquid | 1177.09 kg/m3
235.12 K, 296.35 kPa, Liquid | 1173.64 kg/m3
235.12 K, 647.72 kPa, Liquid | 1174.42 kg/m3
235.12 K, 648.42 kPa, Liquid | 1174.42 kg/m3
235.12 K, 1119.6 kPa, Liquid | 1175.37 kg/m3
235.12 K, 1629.1 kPa, Liquid | 1176.43 kg/m3
235.13 K, 296.36 kPa, Liquid | 1173.65 kg/m3
235.13 K, 1583.2 kPa, Liquid | 1176.31 kg/m3
235.14 K, 1742.1 kPa, Liquid | 1176.61 kg/m3
244.28 K, 721.81 kPa, Liquid | 1147.83 kg/m3
244.28 K, 1218.8 kPa, Liquid | 1148.97 kg/m3
244.29 K, 432.84 kPa, Liquid | 1147.12 kg/m3
244.29 K, 1506.2 kPa, Liquid | 1149.63 kg/m3
244.3 K, 1507.8 kPa, Liquid | 1149.6 kg/m3
244.89 K, 745.03 kPa, Liquid | 1145.98 kg/m3
244.89 K, 1636.6 kPa, Liquid | 1148.09 kg/m3
244.9 K, 364.35 kPa, Liquid | 1145.04 kg/m3
244.9 K, 1266.5 kPa, Liquid | 1147.19 kg/m3
244.9 K, 1785 kPa, Liquid | 1148.39 kg/m3
244.91 K, 1786.1 kPa, Liquid | 1148.39 kg/m3
254.08 K, 382.25 kPa, Gas | 10.3656 kg/m3
254.09 K, 214.16 kPa, Gas | 5.5491 kg/m3
254.09 K, 313.9 kPa, Gas | 8.3508 kg/m3
254.1 K, 104.12 kPa, Gas | 2.6275 kg/m3
254.65 K, 795.59 kPa, Liquid | 1116.29 kg/m3
254.65 K, 1111.6 kPa, Liquid | 1117.17 kg/m3
254.65 K, 1794.7 kPa, Liquid | 1119.02 kg/m3
254.66 K, 487.53 kPa, Liquid | 1115.4 kg/m3
254.66 K, 1451 kPa, Liquid | 1118.05 kg/m3
254.66 K, 1795.2 kPa, Liquid | 1119 kg/m3
254.67 K, 1113.8 kPa, Liquid | 1117.12 kg/m3
254.67 K, 1449.1 kPa, Liquid | 1118.02 kg/m3
263.88 K, 107.72 kPa, Gas | 2.6075 kg/m3
263.88 K, 204.78 kPa, Gas | 5.0609 kg/m3
263.88 K, 306.27 kPa, Gas | 7.74 kg/m3
263.88 K, 401.96 kPa, Gas | 10.3885 kg/m3
263.88 K, 506.07 kPa, Gas | 13.4247 kg/m3
263.88 K, 571.82 kPa, Gas | 15.4369 kg/m3
263.89 K, 71.43 kPa, Gas | 1.7159 kg/m3
264.46 K, 1262.6 kPa, Liquid | 1086.13 kg/m3
264.46 K, 1771.5 kPa, Liquid | 1087.75 kg/m3
264.47 K, 883.24 kPa, Liquid | 1084.88 kg/m3
264.47 K, 1555.9 kPa, Liquid | 1087.04 kg/m3
264.47 K, 1797.3 kPa, Liquid | 1087.79 kg/m3
264.47 K, 1799.4 kPa, Liquid | 1087.82 kg/m3
264.48 K, 882.25 kPa, Liquid | 1084.85 kg/m3
264.48 K, 1561.7 kPa, Liquid | 1087.04 kg/m3
264.49 K, 616.31 kPa, Liquid | 1083.92 kg/m3
273.73 K, 101.73 kPa, Gas | 2.3681 kg/m3
273.73 K, 312.85 kPa, Gas | 7.5636 kg/m3
273.73 K, 513.88 kPa, Gas | 12.9426 kg/m3
273.73 K, 711.85 kPa, Gas | 18.7582 kg/m3
273.73 K, 817.04 kPa, Gas | 22.1108 kg/m3
273.74 K, 224.38 kPa, Gas | 5.3352 kg/m3
273.74 K, 416.77 kPa, Gas | 10.2856 kg/m3
273.74 K, 614.63 kPa, Gas | 15.8288 kg/m3
273.74 K, 771.81 kPa, Gas | 20.6433 kg/m3
273.74 K, 824.1 kPa, Gas | 22.3391 kg/m3
273.74 K, 876.3 kPa, Liquid | 1053.21 kg/m3
273.74 K, 1101.1 kPa, Liquid | 1054.06 kg/m3
273.75 K, 1351.5 kPa, Liquid | 1054.99 kg/m3
273.76 K, 1582.2 kPa, Liquid | 1055.81 kg/m3
283.52 K, 412.99 kPa, Gas | 9.7269 kg/m3
283.52 K, 614.51 kPa, Gas | 15.0118 kg/m3
283.52 K, 710.61 kPa, Gas | 17.6856 kg/m3
283.53 K, 101.75 kPa, Gas | 2.2806 kg/m3
283.53 K, 213.32 kPa, Gas | 4.8632 kg/m3
283.53 K, 312.42 kPa, Gas | 7.2368 kg/m3
283.53 K, 812.63 kPa, Gas | 20.6499 kg/m3
283.54 K, 502.33 kPa, Gas | 12.0197 kg/m3
283.54 K, 1013.2 kPa, Gas | 26.9253 kg/m3 and 26.9235 kg/m3
283.55 K, 911.64 kPa, Gas | 23.6652 kg/m3
283.55 K, 1562.5 kPa, Liquid | 1020.09 kg/m3
283.56 K, 1156 kPa, Liquid | 1018.14 kg/m3
283.56 K, 1382.8 kPa, Liquid | 1019.19 kg/m3
293.32 K, 107.46 kPa, Gas | 2.3235 kg/m3
293.32 K, 432.29 kPa, Gas | 9.7863 kg/m3
293.32 K, 546.17 kPa, Gas | 12.5808 kg/m3
293.32 K, 656.65 kPa, Gas | 15.3945 kg/m3
293.33 K, 1265.1 kPa, Gas | 33.2531 kg/m3
293.33 K, 1397.3 kPa, Gas | 37.8678 kg/m3
293.33 K, 2143.9 kPa, Liquid | 984.45 kg/m3
293.34 K, 760.28 kPa, Gas | 18.1362 kg/m3
293.34 K, 866.25 kPa, Gas | 21.0499 kg/m3
293.34 K, 968.81 kPa, Gas | 23.9856 kg/m3
293.34 K, 1066.3 kPa, Gas | 26.9025 kg/m3
293.34 K, 1161.5 kPa, Gas | 29.864 kg/m3
293.34 K, 1757.2 kPa, Liquid | 982.24 kg/m3
293.35 K, 1537.9 kPa, Liquid | 980.97 kg/m3
293.37 K, 323.39 kPa, Gas | 7.2059 kg/m3
293.38 K, 219.26 kPa, Gas | 4.8156 kg/m3
